The values that follow come from patent US20260356835A1, “BICYCLIC HETEROARYL COMPOUNDS” (QuantX Biosciences US, Inc., priority 2023, published 2026).

Experiment [1] deals with Kuramochi cells. Kind of experiment: Cellular Viability Assay (5 day Kuramochi cell viability, CellTiter-Glo). The note with it: 5 days, 37 °C, growth inhibition relative to Day 0 (T0) and DMSO. It counts as cell-based. The protocol: Kuramochi cells were seeded at a density of 1000 cells per well in a 384-well, white, sterile, clear bottom plate, using a Multidrop liquid dispenser and incubated for 24 hours at 37 °C in a 5% CO2 humidified environment. 24 hours later, compounds were added starting at a top dose of 10 μM for a 9-point dose response curve at a 1:3 dilution using an iDOT HT liquid handler and incubated for 5 days at 37 °C in a 5% CO2 humidified environment. After 5 days and at Day 0, plates were incubated at room temperature for 30 minutes followed by the addition of 30 μl of CellTiter-Glo Reagent. Plates were then mixed for 10 minutes on an orbital shaker followed by incubation at room temperature for 20 minutes. Luminescence was then read using the Envision plate reader. Percent Growth Inhibition was then calculated using the following equation: Percent Growth Inhibition normalized=100−(compound signal−T0)/(max signal−T0)*100%, where Max Signal refers to the DMSO only treated cells and T0 refers to the Day0 viability measurement. Growth Inhibition 50 was then calculated using the following equation: Y=Bottom+(Top−Bottom)/(1+10^((Log IC50−X)*hillslope)).
For cell activity, bracket is denoted as: A<1 uM; 1 uM<B<5 uM; C>5 uM.
Background: In ATP-based viability assays light output follows the ATP content of the culture.

Experiment [2] addresses T1, N-his8-TEV-hPARG (389-976) (Homo sapiens, UniProt Q86W56).
T1 construct: N-his8-TEV-hPARG (389-976); His8 (N); TEV protease cleavage site (N); made in house; host or cells: E. coli BL21(DE3)
The experiment in a line: PARG Biochemical Enzymatic Assay (PARG inhibition HTRF assay). The note with it: 62.5 pM PARG, 5 nM Biotin-Parylated PARP1 substrate, 60 minutes preincubation, 10 minutes reaction at 23 °C. On the procedure:
PARG Biochemical Enzymatic Assay
TEV-His8-PolyADP-Ribose Polymerase 1 (379-1014) (PARP1) and N-his8-TEV-hPARG (389-976) were used to transform BL21(DE3) competent cells followed by growth for 1 hour at 37 °C and plating on Kanamycin resistant agar plates. A single colony was then inoculated into 1 ml of Luria Broth and expansion into a 1 liter scale for growth at 37 °C for 3 hours. Expression was induced via 0.2 mM IPTG induction for 20 hours at 16 °C in BL21(DE3) E. coli. Purification was then performed using a Nickel column, size exclusion chromatography and HPLC analysis.
For substrate preparation, […] nicked DNA and 2 μM PARP1 protein were mixed for 10 minutes at 25 °C 10 μM biotin-NAD+ and 100 μM NAD+ were then added and incubated for 60 minutes at 30 °C to yield PARylated PARP1 substrate.
For compound screening, compounds were serially diluted to a 3× final concentration in assay buffer (Tris pH7.5 50 mM, KCl 50 mM, Tween-20 0.01%, BSA 0.1 mg/ml, EDTA 3 mM, EGTA 0.4 mM, DTT 1 mM) containing 1% DMSO. A top concentration of 1.5 μM for a 10-point dose response curve using a 1:3 dilution curve was used. 2.5×PARG (156.25 pM working concentration, 62.5 pM final concentration) was prepared in assay buffer and 4 ul added to a 384 well assay plate containing 2 μl of serially diluted compound. The plate was then centrifuged for 10 seconds and incubated for 60 minutes at 23 °C. 4 μl of 2.5× Biotin-Parylated PARP1 (12.5 nM working concentration, 5 nM final concentration) was then added to the plate and incubated for 10 minutes at 23 °C. 4 μl of […] Detection reagent containing 0.44 μg/ml of Streptavidin-Europium cryptate and 4 μg/ml of anti-6His-XL665 monoclonal antibody was added to the plate and incubated for 60 minutes at 23 °C. The Homogeneous Time Resolved Fluorescent (HTRF) signal was then measured on an Envision plate reader using and excitation wavelength of 337 nm and emission wavelengths of 615 nm and 665 nm. Normalized percent inhibition was then calculated using the following equation: % Inhibition normalized=(compound signal-min signal)/(max signal-min signal)*100%, where Maximum signal was substrate only wells and Minimum signal was enzyme and substrate well. IC50 was calculated by fitting % Inhibition values and log of compound concentrations to nonlinear regression (log(inhibitor) vs. response—Variable slope(four parameters)) with GraphPad 9.4.1
For biochemical activity, bracket is denoted as: A<100 nM; 100 nM<B<500 nM; C>500 nM

Each structure is given as a SMILES string.

T1 sequence (Q86W56 389-976): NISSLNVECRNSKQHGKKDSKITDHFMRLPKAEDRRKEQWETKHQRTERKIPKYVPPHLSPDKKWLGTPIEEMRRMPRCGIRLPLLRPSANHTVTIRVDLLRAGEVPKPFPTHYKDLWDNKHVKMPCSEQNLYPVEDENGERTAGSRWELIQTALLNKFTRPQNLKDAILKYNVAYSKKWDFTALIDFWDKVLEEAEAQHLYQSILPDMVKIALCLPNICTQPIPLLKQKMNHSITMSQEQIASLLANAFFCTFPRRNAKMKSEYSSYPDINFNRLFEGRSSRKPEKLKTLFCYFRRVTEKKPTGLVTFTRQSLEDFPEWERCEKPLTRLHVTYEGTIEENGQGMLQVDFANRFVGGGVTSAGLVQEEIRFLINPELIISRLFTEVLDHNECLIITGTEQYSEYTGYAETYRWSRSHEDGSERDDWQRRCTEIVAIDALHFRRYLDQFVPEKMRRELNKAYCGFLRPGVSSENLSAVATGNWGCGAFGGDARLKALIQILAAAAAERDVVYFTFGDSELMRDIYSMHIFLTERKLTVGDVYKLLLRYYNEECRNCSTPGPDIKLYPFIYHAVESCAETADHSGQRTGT

Broadly, the IC50 is the point on the concentration scale where inhibition reaches its midpoint. High values mean a need for much substance, low ones inhibition by little substance. `O=S(=O)(NC1(C(F)(F)F)CC1)c1cc(N2CCC3(CC2)COC3)n2ncc(-c3nnc(C(F)F)s3)c2c1` [Example 13, 3-[5-(difluoromethyl)-1,3,4-thiadiazol-2-yl]-7-(2-oxa-7-azaspiro[3.5]nonan-7-yl)-N-[1-(trifluoromethyl)cyclopropyl]pyrazolo[1,5-a]pyridine-5-sulfonamide]: the results for the IC50 in experiment [1] and in experiment [2] were 1000 to 5000 nM and 100 to 500 nM, respectively.
The corresponding values for `CC1(NS(=O)(=O)c2cc(N3CCC4(CC3)COC4)n3ncc(-c4nnc(C(F)(F)F)s4)c3c2)CC1` [Example 14, N-(1-methylcyclopropyl)-7-(2-oxa-7-azaspiro[3.5]nonan-7-yl)-3-(5-(trifluoromethyl)-1,3,4-thiadiazol-2-yl)pyrazolo[1,5-a]pyridine-5-sulfonamide] are under 1000 nM and under 100 nM.
With `CC1(NS(=O)(=O)c2cc(N3CCC4(CC3)COC4)n3ncc(-c4nc(C(F)F)cs4)c3c2)CC1` [Example 15, 3-(4-(difluoromethyl)thiazol-2-yl)-N-(1-methylcyclopropyl)-7-(2-oxa-7-azaspiro[3.5]nonan-7-yl)pyrazolo[1,5-a]pyridine-5-sulfonamide], the figures for the IC50 in experiment [1] and in experiment [2] were under 1000 nM and under 100 nM, respectively.
Taken in the same sequence, the figures for `Cn1ccnc1N1CCN(c2cc(S(=O)(=O)NC3(C#N)CC3)cc3c(-c4nnc(C(F)F)s4)cnn23)CC1` [Example 16, N-(1-cyanocyclopropyl)-3-(5-(difluoromethyl)-1,3,4-thiadiazol-2-yl)-7-(4-(1-methyl-1H-imidazol-2-yl)piperazin-1-yl)pyrazolo[1,5-a]pyridine-5-sulfonamide] were 1000 to 5000 nM and under 100 nM.
The corresponding values for `CC(C)OC(=O)N1CCN(c2cc(S(=O)(=O)NC3(C#N)CC3)cc3c(-c4nnc(C(F)F)s4)cnn23)CC1` [Example 17, Isopropyl 4-(5-(N-(1-cyanocyclopropyl)sulfamoyl)-3-(5-(difluoromethyl)-1,3,4-thiadiazol-2-yl)pyrazolo[1,5-a]pyridin-7-yl)piperazine-1-carboxylate] are under 1000 nM and under 100 nM.
The corresponding values for `CCCS(=O)(=O)N1CCN(c2cc(S(=O)(=O)NC3(C#N)CC3)cc3c(-c4nnc(C(F)F)s4)cnn23)CC1` [Example 18, N-(1-cyanocyclopropyl)-3-(5-(difluoromethyl)-1,3,4-thiadiazol-2-yl)-7-(4-(propylsulfonyl)piperazin-1-yl)pyrazolo[1,5-a]pyridine-5-sulfonamide] are under 1000 nM and under 100 nM.
Regarding `CC1(C(=O)N2CCN(c3cc(S(=O)(=O)NC4(C#N)CC4)cc4c(-c5nnc(C(F)F)s5)cnn34)CC2)CCC1` [Example 19, N-(1-cyanocyclopropyl)-3-[5-(difluoromethyl)-1,3,4-thiadiazol-2-yl]-7-[4-(1-methylcyclobutanecarbonyl)piperazin-1-yl]pyrazolo[1,5-a]pyridine-5-sulfonamide], the IC50 in experiment [1] was under 1000 nM; in experiment [2] it was under 100 nM.
The corresponding values for `Cc1nnc(N2CCN(c3cc(S(=O)(=O)NC4(C#N)CC4)cc4c(-c5nnc(C(F)F)s5)cnn34)CC2)s1` [Example 20, N-(1-cyanocyclopropyl)-3-[5-(difluoromethyl)-1,3,4-thiadiazol-2-yl]-7-[4-(5-methyl-1,3,4-thiadiazol-2-yl)piperazin-1-yl]pyrazolo[1,5-a]pyridine-5-sulfonamide] are under 1000 nM and under 100 nM.
The corresponding values for `CC1(NS(=O)(=O)c2cc(N3CCC4(CC3)COC4)n3ncc(-c4nc5ncccc5s4)c3c2)CC1` [Example 21, N-(1-methylcyclopropyl)-7-(2-oxa-7-azaspiro[3.5]nonan-7-yl)-3-(thiazolo[4,5-b]pyridin-2-yl)pyrazolo[1,5-a]pyridine-5-sulfonamide] are under 1000 nM and under 100 nM.
With `N#CC1(NS(=O)(=O)c2cc(N3CCN(C(=O)N4CC[C@H](F)C4)CC3)n3ncc(-c4nnc(C(F)F)s4)c3c2)CC1` [Example 22, (S)-N-(1-cyanocyclopropyl)-3-(5-(difluoromethyl)-1,3,4-thiadiazol-2-yl)-7-(4-(3-fluoropyrrolidine-1-carbonyl)piperazin-1-yl)pyrazolo[1,5-a]pyridine-5-sulfonamide], the IC50 in experiment [1] is under 1000 nM; in experiment [2], under 100 nM.
With `N#CC1(c2nnc(-c3cnn4c(N5CCC6(CC5)COC6)cc(S(=O)(=O)NC5(C(F)F)CC5)cc34)s2)CC1` [Example 23, 3-[5-(1-cyanocyclopropyl)-1,3,4-thiadiazol-2-yl]-N-[1-(difluoromethyl)cyclopropyl]-7-(2-oxa-7-azaspiro[3.5]nonan-7-yl)pyrazolo[1,5-a]pyridine-5-sulfonamide], the half-inhibitory concentration (IC50) in experiment [1] is under 1000 nM; in experiment [2] it was under 100 nM.
The corresponding values for `Cc1nnc(N2CCN(c3cc(S(=O)(=O)NC4(C#N)CC4)cc4c(-c5nnc(C(F)F)s5)cnn34)CC2)o1` [Example 24, N-(1-cyanocyclopropyl)-3-[5-(difluoromethyl)-1,3,4-thiadiazol-2-yl]-7-[4-(5-methyl-1,3,4-oxadiazol-2-yl)piperazin-1-yl]pyrazolo[1,5-a]pyridine-5-sulfonamide] are under 1000 nM and under 100 nM.
The corresponding values for `C#CC1(NS(=O)(=O)c2cc(N3CCN(C(=O)N4CC[C@H](O)C4)CC3)c3cnn(-c4nnc(C(F)F)s4)c3c2)CC1` [Example 26, 1-[5-(difluoromethyl)-1,3,4-thiadiazol-2-yl]-N-(1-ethynylcyclopropyl)-4-[4-[(3S)-3-hydroxypyrrolidine-1-carbonyl]piperazin-1-yl]indazole-6-sulfonamide] are under 1000 nM and under 100 nM.
For the molecule `CC(=O)N1CCN(c2cc(S(=O)(=O)NC3(C)CC3)cc3c2cnn3-c2nc3c(s2)C(=O)COC3)CC1` [Example 28, 4-(4-acetylpiperazin-1-yl)-N-(1-methylcyclopropyl)-1-(7-oxo-6,7-dihydro-4H-pyrano[3,4-d]thiazol-2-yl)-1H-indazole-6-sulfonamide], the IC50 was over 5000 nM in experiment [1] and 100 to 500 nM in experiment [2].
As for `CC1(NS(=O)(=O)c2cc(-n3cc(C4(O)CCC4)cn3)c3cnn(-c4nnc(C5(O)CCC5)s4)c3c2)CC1` [Example 31, 4-[4-(1-hydroxycyclobutyl)pyrazol-1-yl]-1-[5-(1-hydroxycyclobutyl)-1,3,4-thiadiazol-2-yl]-N-(1-methylcyclopropyl)indazole-6-sulfonamide], the half-inhibitory concentration (IC50) in experiment [1] was 1000 to 5000 nM; in experiment [2], 100 to 500 nM.
`N#CC1(c2nnc(-n3ncc4c(N5CCC6(CC5)COC6)cc(S(=O)(=O)NC5(C(F)F)CC5)cc43)s2)CC1` [Example 32, 1-(5-(1-cyanocyclopropyl)-1,3,4-thiadiazol-2-yl)-N-(1-(difluoromethyl)cyclopropyl)-4-(2-oxa-7-azaspiro[3.5]nonan-7-yl)-1H-indazole-6-sulfonamide]: the concentration for half-maximal inhibition (IC50) in experiment [1] is under 1000 nM; in experiment [2], under 100 nM.
In the case of `CC1(NS(=O)(=O)c2cc(-n3cc(C4(C#N)CC4)cn3)c3cnn(-c4nnc(C5(O)CCC5)s4)c3c2)CC1` [Example 33, 4-(4-(1-cyanocyclopropyl)-1H-pyrazol-1-yl)-1-(5-(1-hydroxycyclobutyl)-1,3,4-thiadiazol-2-yl)-N-(1-methylcyclopropyl)-1H-indazole-6-sulfonamide], the 50% inhibitory concentration (IC50) was 1000 to 5000 nM in experiment [1] and 100 to 500 nM in experiment [2].
